Molecules are shown by their SMILES. Where two headings read alike, the source gives them in different places.

For assay [1], the target named is T1, α2β3γ2 benzodiazepine receptor GABA(A) isoform (UniProt P18507+P47869).
T1 sequence (P18507 1-475): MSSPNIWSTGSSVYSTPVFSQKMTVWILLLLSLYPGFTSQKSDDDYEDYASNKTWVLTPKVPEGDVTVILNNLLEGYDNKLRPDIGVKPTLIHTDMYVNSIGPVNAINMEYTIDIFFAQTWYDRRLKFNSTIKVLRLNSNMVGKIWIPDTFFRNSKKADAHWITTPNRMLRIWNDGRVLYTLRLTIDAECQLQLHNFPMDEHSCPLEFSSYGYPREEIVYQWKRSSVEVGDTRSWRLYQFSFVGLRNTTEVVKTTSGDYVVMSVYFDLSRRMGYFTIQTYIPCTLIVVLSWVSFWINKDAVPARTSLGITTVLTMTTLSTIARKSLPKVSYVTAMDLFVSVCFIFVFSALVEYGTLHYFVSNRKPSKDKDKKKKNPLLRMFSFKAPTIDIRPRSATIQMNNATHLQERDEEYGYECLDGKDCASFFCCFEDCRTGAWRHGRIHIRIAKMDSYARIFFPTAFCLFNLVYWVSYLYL
T1 sequence (P47869 1-451): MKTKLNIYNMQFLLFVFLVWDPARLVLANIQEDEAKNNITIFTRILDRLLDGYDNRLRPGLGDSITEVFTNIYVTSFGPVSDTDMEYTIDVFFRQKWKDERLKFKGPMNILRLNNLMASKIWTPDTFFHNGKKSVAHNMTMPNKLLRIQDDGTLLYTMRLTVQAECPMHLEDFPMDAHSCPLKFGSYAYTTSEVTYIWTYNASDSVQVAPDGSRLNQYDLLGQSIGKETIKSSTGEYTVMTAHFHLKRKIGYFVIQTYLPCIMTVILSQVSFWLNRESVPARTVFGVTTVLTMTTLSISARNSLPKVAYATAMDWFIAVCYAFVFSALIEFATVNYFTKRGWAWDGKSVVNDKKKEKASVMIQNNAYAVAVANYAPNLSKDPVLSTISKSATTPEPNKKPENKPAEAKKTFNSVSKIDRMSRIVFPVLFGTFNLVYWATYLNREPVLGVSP
The experiment in a line: Radioligand competition binding, α2β3γ2 BzR/GABA(A) isoform. The arrangement: species or system human and rat. On the procedure: (§1) The affinity of all ligands at the 6 major recombinant GABAA/BzR subtypes was measured by competition for [^3H]Ro15-1788 binding to HEK-T cells expressing both human and rat GABAA/Bz receptors of composition α1β2γ2 (α1), α2β2γ2 (α2), α3β2γ2 (α3), α4β2γ2 (α4), α5β2γ2 (α5) and α6β2γ2 (α6). It is well known that the β2 and β3 subunits can be interchanged with no effect on Bz ligand affinity or efficacy. […] These studies are similar to those performed in the laboratory of Bryan Roth who has already expressed the receptors employing the work of Kucken et. al. and Gray et. al.
(§2) In brief, for membrane preparations, the cells were scraped on to the ice and diluted into 5 mL of phosphate buffered saline (pH=7.40) and cells pelleted by centrifugation for 5 min. at 4° C. The pellet was resuspended in 1 mL of 50 mM Tris-acetate buffer (pH 7.4) and centrifuged at 18,000 g for 20 min. […] Each pellet were diluted to 6 mL and then 100 μL of membranes were incubated with approximately 1 nM final concentration of [^3H]Ro 15-1788 in a total volume of 250 μL together with serial dilutions of test compound for 90 min. on ice. The membranes were harvested in polyethyleneimine-pretreated Whatman GF/C filters and after drying and addition of scintillation cocktail, counted in a scintillation counter. The cpm retained on the filters was plotted against log concentration (M) and fitted to one site competition equation to obtain the Ki using Graphpad Prizm (V4.0) using the Cheng-Prusoff approximation.
Background: Displacement assays read how much labelled ligand stays bound in the presence of the test substance.

Assay [2] concerns the target α6β3γ2 benzodiazepine receptor GABA(A) isoform (UniProt P18507+Q16445). The experiment in a line: Radioligand competition binding, α6β3γ2 BzR/GABA(A) isoform. On the set-up: species or system human and rat. As for the experimental part:
as §1, §2

The target in assay [3] is T2, α1β3γ2 benzodiazepine receptor GABA(A) isoform (UniProt P14867+P18507).
T2 sequence (P14867 1-456): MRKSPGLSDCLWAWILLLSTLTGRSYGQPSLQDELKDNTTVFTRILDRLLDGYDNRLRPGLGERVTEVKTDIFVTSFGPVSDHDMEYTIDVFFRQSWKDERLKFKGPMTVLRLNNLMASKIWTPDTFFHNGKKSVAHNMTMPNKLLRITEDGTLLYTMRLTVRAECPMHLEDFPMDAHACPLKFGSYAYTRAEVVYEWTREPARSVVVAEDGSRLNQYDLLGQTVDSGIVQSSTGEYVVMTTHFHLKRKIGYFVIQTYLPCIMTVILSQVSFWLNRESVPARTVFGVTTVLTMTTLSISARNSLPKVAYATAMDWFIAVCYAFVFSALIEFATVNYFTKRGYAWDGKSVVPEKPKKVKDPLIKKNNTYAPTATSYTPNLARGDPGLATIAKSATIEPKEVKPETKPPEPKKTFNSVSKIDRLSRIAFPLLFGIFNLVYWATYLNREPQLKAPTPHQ
T2 sequence (P18507 1-475): T1 sequence (P18507 1-475)
Put plainly: Radioligand competition binding, α1β3γ2 BzR/GABA(A) isoform. On the set-up: Ki α1; means of two determinations; Ki α1; α1; species or system human and rat. As for the experimental part:
as §1, §2

For another assay, the target named is α5β3γ2 GABAA receptor (Rattus norvegicus, UniProt P18508+P19969). The experiment in a line: Two-electrode voltage clamp in Xenopus oocytes, α5β3γ2. To be noted: oocytes. (In general: In two-electrode clamp one electrode senses voltage and the other passes current.)
Assay [4] deals with T3, α5β3γ2 benzodiazepine receptor GABA(A) isoform (UniProt P18507+P31644).
T3 sequence (P18507 1-475): T1 sequence (P18507 1-475)
T3 sequence (P31644 1-462): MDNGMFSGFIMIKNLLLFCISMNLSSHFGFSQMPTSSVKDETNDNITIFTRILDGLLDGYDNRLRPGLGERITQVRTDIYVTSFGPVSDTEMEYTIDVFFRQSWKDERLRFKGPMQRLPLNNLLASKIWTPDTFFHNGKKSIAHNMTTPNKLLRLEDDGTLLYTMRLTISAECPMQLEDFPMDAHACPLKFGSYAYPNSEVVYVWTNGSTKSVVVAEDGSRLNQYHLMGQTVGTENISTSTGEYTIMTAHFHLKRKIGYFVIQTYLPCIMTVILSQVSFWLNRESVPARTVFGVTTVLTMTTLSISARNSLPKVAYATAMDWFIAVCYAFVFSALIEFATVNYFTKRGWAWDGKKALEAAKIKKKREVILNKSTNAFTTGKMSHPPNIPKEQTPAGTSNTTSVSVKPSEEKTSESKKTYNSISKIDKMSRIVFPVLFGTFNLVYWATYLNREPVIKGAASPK
The experiment in a line: Radioligand competition binding, α5β3γ2 BzR/GABA(A) isoform. On the set-up: Ki α5; means of two determinations; Ki α5; α5; other: text; species or system human and rat.

The mark [5] stands for this setting: read-out: Ki α2, Table I, means of two determinations.
Where [6] appears, read: read-out: α2, untitled table of lead compounds, unit inferred.
Where [7] appears, read: read-out: Ki α6, Table I, means of two determinations.
Setting [8] is: read-out: α6, untitled table of lead compounds, unit inferred.
The mark [9] stands for this setting: read-out: Ki α1, Table I, means of two determinations.
Setting [10] is: read-out: α1, untitled table of lead compounds, unit inferred.
Where [11] appears, read: read-out: Ki α5, Table I, means of two determinations.
Where [12] appears, read: read-out: α5, untitled table of lead compounds, unit inferred.

Chain of α5β3γ2 GABAA receptor (P19969 26-464): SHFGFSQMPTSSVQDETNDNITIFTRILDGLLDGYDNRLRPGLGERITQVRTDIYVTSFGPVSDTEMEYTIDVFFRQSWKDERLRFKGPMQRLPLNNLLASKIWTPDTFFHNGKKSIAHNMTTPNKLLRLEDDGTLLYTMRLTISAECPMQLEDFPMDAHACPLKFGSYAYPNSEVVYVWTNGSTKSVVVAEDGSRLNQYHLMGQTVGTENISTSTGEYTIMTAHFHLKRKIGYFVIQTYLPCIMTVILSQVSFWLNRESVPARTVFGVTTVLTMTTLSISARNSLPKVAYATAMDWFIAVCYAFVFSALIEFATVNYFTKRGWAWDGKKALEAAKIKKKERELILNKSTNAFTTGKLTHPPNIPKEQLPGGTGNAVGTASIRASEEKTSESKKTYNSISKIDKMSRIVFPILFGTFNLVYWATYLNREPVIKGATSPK
Chain of α5β3γ2 GABAA receptor (P63079 26-473 partner): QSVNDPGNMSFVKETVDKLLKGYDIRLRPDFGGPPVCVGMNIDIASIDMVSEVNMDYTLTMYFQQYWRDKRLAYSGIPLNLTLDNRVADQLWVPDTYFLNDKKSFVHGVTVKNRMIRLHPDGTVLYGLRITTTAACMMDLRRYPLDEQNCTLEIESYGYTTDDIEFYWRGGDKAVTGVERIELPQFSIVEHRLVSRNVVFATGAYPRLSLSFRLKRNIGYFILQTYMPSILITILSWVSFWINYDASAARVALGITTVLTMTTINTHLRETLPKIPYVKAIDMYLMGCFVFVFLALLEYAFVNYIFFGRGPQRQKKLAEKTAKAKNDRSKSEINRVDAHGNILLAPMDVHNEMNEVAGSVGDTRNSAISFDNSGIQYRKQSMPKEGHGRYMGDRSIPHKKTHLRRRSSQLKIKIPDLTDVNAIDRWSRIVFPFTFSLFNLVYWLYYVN
Chain of α5β3γ2 GABAA receptor (P18508 39-466): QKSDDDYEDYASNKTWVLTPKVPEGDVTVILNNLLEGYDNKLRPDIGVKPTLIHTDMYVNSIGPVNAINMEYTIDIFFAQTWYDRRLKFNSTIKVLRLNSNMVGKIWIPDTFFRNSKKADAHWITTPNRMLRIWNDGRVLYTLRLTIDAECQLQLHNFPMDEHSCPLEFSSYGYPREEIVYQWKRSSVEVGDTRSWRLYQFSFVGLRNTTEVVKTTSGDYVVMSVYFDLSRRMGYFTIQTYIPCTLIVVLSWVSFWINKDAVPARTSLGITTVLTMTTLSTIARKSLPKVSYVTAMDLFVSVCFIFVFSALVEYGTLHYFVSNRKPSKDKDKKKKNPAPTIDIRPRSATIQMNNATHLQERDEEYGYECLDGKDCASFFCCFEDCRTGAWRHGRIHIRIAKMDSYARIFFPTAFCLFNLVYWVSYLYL

Consider `CCOC(=O)c1ncn2c1CN=C(c1ccccc1)c1cc(-c3ccccc3)ccc1-2` [DM-I-81, Ethyl 8-phenyl-6-phenyl-4H-benzo[f]imidazo[1,5-a][1,4]diazepine-3-carboxylate], for which the Ki in assay [1] (setting [5]), in assay [1] (setting [6]), in assay [2] (setting [7]), in assay [2] (setting [8]), in assay [3] (setting [9]) and in assay [3] (setting [10]) was above 2000 nM throughout. In addition, the Ki in assay [4] (setting [11]) worked out at 176 nM; in assay [4] (read-out: binding potency at α5 subtypes) it was 174 nM; in assay [4] (setting [12]), 176 nM. In addition, at α5β3γ2 GABAA receptor, the “efficacy / modulation of GABA elicited currents at α5 (in words)” value (“efficacy / modulation” below) is given as “moderate agonist activity”.

As for `COCc1ncn2c1CN(C)C(=O)c1cc(Cl)ccc1-2` [PWZ-029, methyl(8-chloro-5,6-dihydro-5-methyl-6-oxo-4H-imidazo[1,5-α][1,4]benzodiazepin-3-yl)methyl ether], the Ki in assay [1] (setting [5]), in assay [1] (setting [6]), in assay [2] (setting [7]), in assay [2] (setting [8]), in assay [3] (setting [9]) and in assay [3] (setting [10]) was above 300 nM throughout. The Ki in assay [4] (setting [11]) and in assay [4] (setting [12]) was 38.8 nM in each case. Also, at α5β3γ2 GABAA receptor, the “efficacy / modulation” value is “selective inverse agonist”.

With `CCc1ccc2c(c1)C(=O)N(C)Cc1c(C(=O)OCCCOC(=O)c3ncn4c3CN(C)C(=O)c3cc(CC)ccc3-4)ncn1-2` [XLi356, 1,3-Bis(8-ethyl-5,6-dihydro-5-methyl-6-oxo-4H-imidazo[1,5a][1,4]benzodiazepine-3-carboxy)propyl diester], the Ki in assay [1] (read-out: Ki α2, Table 2, means of two determinations) was determined as 5980 nM; in assay [1] (setting [6]) it was 5980 nM; in assay [2] (read-out: Ki α6, Table 2, means of two determinations), 5000 nM; in assay [3] (read-out: Ki α1, Table 2, means of two determinations), 2380 nM; in assay [3] (setting [10]), 2380 nM; in assay [4] (read-out: Ki α5, Table 2, means of two determinations), 107 nM. For the same molecule, the Ki in assay [4] (setting [12]) amounted to 107 nM. Moreover, the “efficacy / modulation” value on α5β3γ2 GABAA receptor (listed as XLi-356) was “clear agonist”; at α5β3γ2 GABAA receptor (listed as Xli356), “appears to be an agonist”.

Values taken from patent US7595395B2, “Gabaergic agents to treat memory deficits” (priority 2005, dated 2009).
